Biological target: SIRT6 enzyme (Homo sapiens, UniProt Q8N6T7)
Test: Measurement of deacetylation activity (SIRT6, AlphaLISA, H3K9(Ac) peptide)
Assay type: biochemical
Conditions: SIRT6 25 ng/mL, H3K9(Ac) biotin peptide 2 nM, NAD 10 μM, room temperature 30 minutes, duplicate
Summary of the method: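 SIRT6 (25 ng/mL final) in Tris-HCl pH 8.0 buffer with compound (e.g. 0.046–100 μM final) reacted with biotin-H3K9(Ac) peptide (2 nM) and NAD+ (10 μM), 30 min, room temperature. Stopped with nicotinamide plus AlphaLISA anti-unmodified H3K9/K27 beads, 60 min; EC150 (150% relative activity) from sigmoidal fit.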

Sequence of SIRT6 enzyme (Q8N6T7 whole entry, species assumed): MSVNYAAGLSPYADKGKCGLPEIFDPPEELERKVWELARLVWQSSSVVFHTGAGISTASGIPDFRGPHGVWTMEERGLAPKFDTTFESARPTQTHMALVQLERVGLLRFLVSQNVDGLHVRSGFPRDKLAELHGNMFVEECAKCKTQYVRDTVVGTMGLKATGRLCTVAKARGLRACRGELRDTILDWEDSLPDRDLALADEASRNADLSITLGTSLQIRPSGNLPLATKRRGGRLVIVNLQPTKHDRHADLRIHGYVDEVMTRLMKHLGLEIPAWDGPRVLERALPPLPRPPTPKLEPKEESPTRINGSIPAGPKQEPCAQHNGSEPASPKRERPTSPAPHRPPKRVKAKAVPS

| SMILES | EC150 (the concentration of the compound showing a relative enzyme activity of 150%) [μm] |
| --- | --- |
| CNC(=O)Nc1nc2c(s1)C1COCC(C2)N1c1nnc(-c2cccc(C(F)(F)F)c2)o1 (stereo not drawn) [Example 110, N-methyl-N′-(10-{5-[3-(trifluoromethyl)phenyl]-1,3,4-oxadiazol-2-yl}-4,7,8,9-tetrahydro-5H-4,8-epiminooxocino[5,4-d][1,3]thiazol-2-yl)urea] | 3.7 |
| CNC(=O)Nc1nc2c(s1)C1COCC(C2)N1c1nnc(-c2cccc(OC(C)(C)C)c2)o1 (stereo not drawn) [Example 111, N-{10-[5-(3-tert-butoxyphenyl)-1,3,4-oxadiazol-2-yl]-4,7,8,9-tetrahydro-5H-4,8-epiminooxocino[5,4-d][1,3]thiazol-2-yl}-N′-methylurea] | 2.2 |
| CNC(=O)Nc1nc2c(s1)C1COCC(C2)N1c1nc(-c2cccc(C(=O)C3CC3)c2)no1 (stereo not drawn) [Example 112, N-(10-{3-[3-(cyclopropanecarbonyl)phenyl]-1,2,4-oxadiazol-5-yl}-4,7,8,9-tetrahydro-5H-4,8-epiminooxocino[5,4-d][1,3]thiazol-2-yl)-N′-methylurea] | 1.4 |
| CNC(=O)Nc1nc2c(s1)C1COCC(C2)N1c1nnc(-c2cccc(C(=O)C3CCC3)c2)o1 (stereo not drawn) [Example 113, N-(10-{5-[3-(cyclobutanecarbonyl)phenyl]-1,3,4-oxadiazol-2-yl}-4,7,8,9-tetrahydro-5H-4,8-epiminooxocino[5,4-d][1,3]thiazol-2-yl)-N′-methylurea] | 2.6 |
| O=C(NCC(F)(F)F)Nc1nc2c(s1)C1COCC(C2)N1c1nnc(-c2cccc(C(=O)C3CC3)c2)o1 (stereo not drawn) [Example 114] | 2.4 |
| O=C(Nc1nc2c(s1)C1COCC(C2)N1c1nnc(-c2cccc(OC(F)F)c2)o1)N[C@H]1CCOC1 (stereo partly drawn) [Example 115, N-(10-{5-[3-(difluoromethoxy)phenyl]-1,3,4-oxadiazol-2-yl}-4,7,8,9-tetrahydro-5H-4,8-epiminooxocino[5,4-d][1,3]thiazol-2-yl)-N′-[(3S)-oxolan-3-yl]urea] | 2 |
| CNC(=O)Nc1nc2c(s1)C1COCC(C2)N1c1ncc(-c2cccc(C(=O)C3CC3)c2F)o1 (stereo not drawn) [Example 116, N-(10-{5-[3-(cyclopropanecarbonyl)-2-fluorophenyl]-1,3-oxazol-2-yl}-4,7,8,9-tetrahydro-5H-4,8-epiminooxocino[5,4-d][1,3]thiazol-2-yl)-N′-methylurea] | 3.1 |
| CC(C)NC(=O)Nc1nc2c(s1)[C@@H]1COC[C@H](C2)N1c1nnc(-c2cccc(C(=O)C3CC3)c2)o1 [Example 117, N-[(4S,8S)-10-{5-[3-(cyclopropanecarbonyl)phenyl]-1,3,4-oxadiazol-2-yl}-4,7,8,9-tetrahydro-5H-4,8-epiminooxocino[5,4-d][1,3]thiazol-2-yl]-N′-propan-2-ylurea] | 1 |
| CCc1cccc(-c2nnc(N3[C@@H]4COC[C@H]3c3sc(NC(=O)NC)nc3C4)o2)c1 [Example 118, N-{(4S,8S)-10-[5-(3-ethylphenyl)-1,3,4-oxadiazol-2-yl]-4,7,8,9-tetrahydro-5H-4,8-epiminooxocino[5,4-d][1,3]thiazol-2-yl}-N′-methylurea] | 1.8 |
| CNC(=O)Nc1nc2c(s1)[C@@H]1COC[C@H](C2)N1c1nnc(-c2cccc(C(C)C)c2)o1 [Example 119, N-methyl-N′-[(4S,8S)-10-{5-[3-(propan-2-yl)phenyl]-1,3,4-oxadiazol-2-yl}-4,7,8,9-tetrahydro-5H-4,8-epiminooxocino[5,4-d][1,3]thiazol-2-yl]urea] | 2.2 |
| CNC(=O)Nc1nc2c(s1)[C@@H]1COC[C@H](C2)N1c1nnc(-c2cccc(OC)c2)o1 [Example 120, N-{(4S,8S)-10-[5-(3-methoxyphenyl)-1,3,4-oxadiazol-2-yl]-4,7,8,9-tetrahydro-5H-4,8-epiminooxocino[5,4-d][1,3]thiazol-2-yl}-N′-methylurea] | 2.4 |
| CCOc1cccc(-c2nnc(N3[C@@H]4COC[C@H]3c3sc(NC(=O)NC)nc3C4)o2)c1 [Example 121, N-{(4S,8S)-10-[5-(3-ethoxyphenyl)-1,3,4-oxadiazol-2-yl]-4,7,8,9-tetrahydro-5H-4,8-epiminooxocino[5,4-d][1,3]thiazol-2-yl}-N′-methylurea] | 2.1 |
| CNC(=O)Nc1nc2c(s1)[C@@H]1COC[C@H](C2)N1c1nnc(-c2cccc(OC(C)C)c2)o1 [Example 122, N-methyl-N′-[(4S,8S)-10-(5-{3-[(propan-2-yl)oxy]phenyl}-1,3,4-oxadiazol-2-yl)-4,7,8,9-tetrahydro-5H-4,8-epiminooxocino[5,4-d][1,3]thiazol-2-yl]urea] | 1.5 |
| CNC(=O)Nc1nc2c(s1)C1CN(C(=O)OC)CC(C2)N1c1nnc(-c2cccc(C(=O)C3CC3)c2)o1 (stereo not drawn) [Example 123, Methyl 10-{5-[3-(cyclopropanecarbonyl)phenyl]-1,3,4-oxadiazol-2-yl}-2-[(methylcarbamoyl)amino]-4,7,8,9-tetrahydro-4,8-epimino[1,3]thiazolo[5,4-d]azocine-6(5H)-carboxylate] | 0.66 |
| C[C@H](CO)NC(=O)Nc1nc2c(s1)C1COCC(C2)N1c1nc(-c2cccc(C(F)F)c2)no1 (stereo partly drawn) [Example 124, N-(10-{3-[3-(difluoromethyl)phenyl]-1,2,4-oxadiazol-5-yl}-4,7,8,9-tetrahydro-5H-4,8-epiminooxocino[5,4-d][1,3]thiazol-2-yl)-N′-[(2R)-1-hydroxypropan-2-yl]urea] | 0.39 |
| CNC(=O)Nc1nc2c(s1)[C@H]1CN(C(=O)C(C)C)C[C@@H](C2)N1c1nc(-c2ccc(F)cc2)no1 [Example 125, N-[(4R,8R)-10-[3-(4-fluorophenyl)-1,2,4-oxadiazol-5-yl]-6-(2-methylpropanoyl)-4,5,6,7,8,9-hexahydro-4,8-epimino[1,3]thiazolo[5,4-d]azocin-2-yl]-N′-methylurea] | 2.4 |
| CNC(=O)Nc1nc2c(s1)C1CN(C(C)=O)CC(C2)N1c1ncc(-c2cccc(OC)n2)o1 (stereo not drawn) [Example 126, N-{6-acetyl-10-[5-(6-methoxypyridin-2-yl)-1,3-oxazol-2-yl]-4,5,6,7,8,9-hexahydro-4,8-epimino[1,3]thiazolo[5,4-d]azocin-2-yl}-N′-methylurea] | 1 |
| CNC(=O)Nc1nc2c(s1)[C@H]1CN(CCO)C[C@@H](C2)N1c1nc(-c2ccc(F)cc2)no1 [Example 127, N-[(4R,8R)-10-[3-(4-fluorophenyl)-1,2,4-oxadiazol-5-yl]-6-(2-hydroxyethyl)-4,5,6,7,8,9-hexahydro-4,8-epimino[1,3]thiazolo[5,4-d]azocin-2-yl]-N′-methylurea] | 2.1 |
| CNC(=O)Nc1nc2c(s1)C1CN(C(C)=O)CC(C2)N1c1ncc(-c2cccc(OC(F)F)n2)o1 (stereo not drawn) [Example 128, N-(6-acetyl-10-{5-[6-(difluoromethoxy)pyridin-2-yl]-1,3-oxazol-2-yl}-4,5,6,7,8,9-hexahydro-4,8-epimino[1,3]thiazolo[5,4-d]azocin-2-yl)-N′-methylurea] | 0.43 |
| CNC(=O)Nc1nc2c(s1)C1CN(C(C)=O)CC(C2)N1c1ncc(-c2cccc(OC)n2)o1 (stereo not drawn) [Example 129, N-{6-acetyl-10-[5-(6-methoxypyridin-2-yl)-1,3-oxazol-2-yl]-4,5,6,7,8,9-hexahydro-4,8-epimino[1,3]thiazolo[5,4-d]azocin-2-yl}-N′-methylurea] | 0.38 |
| CNC(=O)Nc1nc2c(s1)C1CN(C(C)=O)CC(C2)N1c1nc2cc(F)ccc2o1 (stereo not drawn) [Example 130, N-[6-acetyl-10-(5-fluoro-1,3-benzoxazol-2-yl)-4,5,6,7,8,9-hexahydro-4,8-epimino[1,3]thiazolo[5,4-d]azocin-2-yl]-N′-methylurea] | 3.7 |
| CNC(=O)Nc1nc2c(s1)C1CN(C(=O)OC)CC(C2)N1c1nc(C2CCC(F)(F)C2)no1 (stereo not drawn) [Example 131, Methyl 10-[3-(3,3-difluorocyclopentyl)-1,2,4-oxadiazol-5-yl]-2-[(methylcarbamoyl)amino]-4,7,8,9-tetrahydro-4,8-epimino[1,3]thiazolo[5,4-d]azocin-6(5H)-carboxylate] | 1.4 |
| CNC(=O)Nc1nc2c(s1)C1CN(C(=O)OC)CC(C2)N1c1nc(C2CCC(F)(F)CC2)no1 (stereo not drawn) [Example 132, Methyl 10-[3-(4,4-difluorocyclohexyl)-1,2,4-oxadiazol-5-yl]-2-[(methylcarbamoyl)amino]-4,7,8,9-tetrahydro-4,8-epimino[1,3]thiazolo[5,4-d]azocine-6(5H)-carboxylate] | 0.39 |
| CNC(=O)Nc1nc2c(s1)C1CN(C(=O)OC)CC(C2)N1c1nc(C23CCC(F)(CC2)C3)no1 (stereo not drawn) [Example 133, Methyl 10-[3-(4-fluorobicyclo[2.2.1]heptan-1-yl)-1,2,4-oxadiazol-5-yl]-2-[(methylcarbamoyl)amino]-4,7,8,9-tetrahydro-4,8-epimino[1,3]thiazolo[5,4-d]azocin-6(5H)-carboxylate] | 1.4 |
